Laboratory results taken from ChEMBL document CHEMBL1145260, “Design, synthesis and structure-activity relationships of 6-O-arylpropargyl diazalides with potent activity against multidrug-resistant Streptococcus pneumoniae” (2005).
≈ marks a conversion by molar mass, not a printed value.

Assays:
Type in all cases: functional
Streptococcus pneumoniae [1] = test: Minimum inhibitory concentration against Streptococcus pneumoniae 5979 strain
Streptococcus pneumoniae [2] = test: Minimum inhibitory concentration against Streptococcus pneumoniae ATCC 6303 (erythromycin-susceptible strain)
Staphylococcus aureus [3] = test: Minimum inhibitory concentration against Staphylococcus aureus A5177 (erythromycin-resistant strain
Staphylococcus aureus [4] = test: Minimum inhibitory concentration against Staphylococcus aureus 6538P (erythromycin-susceptible strain)
Streptococcus pneumoniae [5] = test: Minimum inhibitory concentration against Streptococcus pneumoniae 5649 strain
Streptococcus pyogenes [6] = test: Minimum inhibitory concentration against Streptococcus pyogenes EES61 (erythromycin-susceptible strain)
Haemophilus influenzae = test: Minimum inhibitory concentration against Haemophilus influenzae GYR1435 (erythromycin susceptible strain)
Streptococcus pyogenes [7] = test: Minimum inhibitory concentration against Streptococcus pyogenes 930 (erythromycin-resistant strain)

Row | SMILES | MIC (Streptococcus pneumoniae [1]) [µg/mL] | MIC (Streptococcus pneumoniae [2]) [µg/mL] | MIC (Staphylococcus aureus [3]) [µg/mL] | MIC (Staphylococcus aureus [4]) [µg/mL] | MIC (Streptococcus pneumoniae [5]) [µg/mL] | MIC (Streptococcus pyogenes [6]) [µg/mL] | MIC (Haemophilus influenzae) [µg/mL] | MIC (Streptococcus pyogenes [7]) [µg/mL]
1 | CC[C@H]1OC(=O)[C@H](C)C(=O)[C@H](C)[C@@H](O[C@@H]2O[C@H](C)C[C@H](N(C)C)[C@H]2O)[C@@](C)(OCC#Cc2cnc3c(F)cccc3c2)C[C@@H](C)C2=NCCN3C(=O)O[C@@]1(C)[C@H]3[C@H]2C | 4 (≈ 4.96 µM) | 0.004 (≈ 0.00496 µM) | 0.1 (≈ 0.124 µM) | 0.06 (≈ 0.0744 µM) | 0.25 (≈ 0.31 µM) | ≤ 0.008 | 2 (≈ 2.48 µM) | 0.5 (≈ 0.62 µM)
2 | CC[C@H]1OC(=O)[C@H](C)C(=O)[C@H](C)[C@@H](O[C@@H]2O[C@H](C)C[C@H](N(C)C)[C@H]2O)[C@@](C)(OCC#Cc2cccs2)C[C@@H](C)C2=NCCN3C(=O)O[C@@]1(C)[C@H]3[C@H]2C | > 128 | 0.03 (≈ 0.0403 µM) | 0.1 (≈ 0.134 µM) | 0.1 (≈ 0.134 µM) | 0.25 (≈ 0.336 µM) | 0.03 (≈ 0.0403 µM) | 4 (≈ 5.38 µM) | 64 (≈ 86 µM)
3 | CC[C@H]1OC(=O)[C@H](C)[C@@H](O[C@H]2C[C@@](C)(OC)[C@@H](O)[C@H](C)O2)[C@H](C)[C@@H](O[C@@H]2O[C@H](C)C[C@H](N(C)C)[C@H]2O)[C@](C)(O)C[C@@H](C)C(=O)[C@H](C)[C@@H](O)[C@]1(C)O [ERYTHROMYCIN] | > 128 | 0.06 (≈ 0.0818 µM) | 6.2 (≈ 8.45 µM) | 0.39 (≈ 0.531 µM) | 16 (≈ 21.8 µM) | 0.03 (≈ 0.0409 µM) | 8 (≈ 10.9 µM) | > 128
4 | CC[C@H]1OC(=O)[C@H](C)C(=O)[C@H](C)[C@@H](O[C@@H]2O[C@H](C)C[C@H](N(C)C)[C@H]2O)[C@](C)(OCC=Cc2cnc3ccccc3c2)C[C@@H](C)C(=O)[C@H](C)[C@H]2NC(=O)O[C@@]21C [CETHROMYCIN] | 16 (≈ 20.9 µM) | 0.03 (≈ 0.0392 µM) | 0.05 (≈ 0.0653 µM) | 0.05 (≈ 0.0653 µM) | 0.25 (≈ 0.326 µM) | < 0.005 | 2 (≈ 2.61 µM) | 1 (≈ 1.31 µM)
5 | CC[C@H]1OC(=O)[C@@](C)(F)C(=O)[C@H](C)[C@@H](O[C@@H]2O[C@H](C)C[C@H](N(C)C)[C@H]2O)[C@@](C)(OCC#Cc2ccc(-c3nnn(C)n3)s2)C[C@@H](C)C2=NCCN3C(=O)O[C@@]1(C)[C@H]3[C@H]2C | 0.125 (≈ 0.148 µM) | ≤ 0.008 | 0.125 (≈ 0.148 µM) | 0.5 (≈ 0.592 µM) | 0.25 (≈ 0.296 µM) | ≤ 0.008 | 4 (≈ 4.74 µM) | 2 (≈ 2.37 µM)
6 | CC[C@H]1OC(=O)[C@H](C)C(=O)[C@H](C)[C@@H](O[C@@H]2O[C@H](C)C[C@H](N(C)C)[C@H]2O)[C@@](C)(OCC#Cc2ccc(-c3ccccn3)cc2)C[C@@H](C)C2=NCCN3C(=O)O[C@@]1(C)[C@H]3[C@H]2C | ≤ 0.008 | ≤ 0.008 | 0.03 (≈ 0.0368 µM) | 0.25 (≈ 0.307 µM) | ≤ 0.008 | ≤ 0.008 | 1 (≈ 1.23 µM) | 8 (≈ 9.82 µM)
7 | CC[C@H]1OC(=O)[C@H](C)C(=O)[C@H](C)[C@@H](O[C@@H]2O[C@H](C)C[C@H](N(C)C)[C@H]2O)[C@@](C)(OCC#Cc2ccc(-c3nnn(C)n3)s2)C[C@@H](C)C2=NCCN3C(=O)O[C@@]1(C)[C@H]3[C@H]2C | 0.003 (≈ 0.00363 µM) | ≤ 0.008 | 0.125 (≈ 0.151 µM) | 0.5 (≈ 0.605 µM) | 0.06 (≈ 0.0726 µM) | ≤ 0.008 | 4 (≈ 4.84 µM) | 2 (≈ 2.42 µM)
8 | CC[C@H]1OC(=O)[C@H](C)C(=O)[C@H](C)[C@@H](O[C@@H]2O[C@H](C)C[C@H](N(C)C)[C@H]2O)[C@@](C)(OCC#Cc2cccnc2)C[C@@H](C)C2=NCCN3C(=O)O[C@@]1(C)[C@H]3[C@H]2C | > 128 | 0.03 (≈ 0.0406 µM) | 0.2 (≈ 0.271 µM) | 0.2 (≈ 0.271 µM) | 1 (≈ 1.35 µM) | 0.03 (≈ 0.0406 µM) | 2 (≈ 2.71 µM) | 64 (≈ 86.6 µM)
